# Publication PMC11756396 (Nature Communications, 2025)
# Columns and labels:
# T cells = details: high, supraphysiological concentrations; cited from earlier work
# [1] = tested on: TCR4-expressing T cells co-cultured with HLA-A3+ antigen presenting cells (Cos-7); experiment: TNFα production by TCR4-transduced T cells (intracellular cytokine staining); details: Conc. 100 (unit not given), mean of three replicates
# HLA-A3 [2] = target: T1, HLA-A3 (Homo sapiens, UniProt P04439); design: method as in 2 sources, one per row (each row's own in cited_ref): ref 15 (a number printed in a supplementary file, which may have a reference list of its own: not looked up in the article's list) ||| ref 10, ref 15; details: cited from earlier work
# T1 construct: the extracellular domain of the MHC heavy chain, β2-microglobulin, TCR α and β chains; made in house
# T1 sequence (P04439 25-308 limits assumed): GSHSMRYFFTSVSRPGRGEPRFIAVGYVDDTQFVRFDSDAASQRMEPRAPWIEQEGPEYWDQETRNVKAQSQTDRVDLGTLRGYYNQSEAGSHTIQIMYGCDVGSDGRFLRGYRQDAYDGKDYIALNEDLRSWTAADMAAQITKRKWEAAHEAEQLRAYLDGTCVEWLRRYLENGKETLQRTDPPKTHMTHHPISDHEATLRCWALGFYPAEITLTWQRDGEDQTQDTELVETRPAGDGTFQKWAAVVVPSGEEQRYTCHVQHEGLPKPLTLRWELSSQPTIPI
# T1 sequence (P61769 21-119 partner): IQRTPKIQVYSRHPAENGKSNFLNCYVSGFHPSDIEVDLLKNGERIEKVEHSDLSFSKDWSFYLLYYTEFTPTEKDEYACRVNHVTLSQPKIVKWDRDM
# [3] = tested on: TCR3-expressing T cells co-cultured with HLA-A3+ antigen presenting cells (Cos-7); experiment: TNFα production by TCR3-transduced T cells (intracellular cytokine staining); details: Conc. 100 (unit not given), mean of three replicates
# HLA-A3 [4] = target: T1, HLA-A3; experiment: 19F NMR of 5F-Trp-substituted peptide/HLA-A3; details: 5F-Trp6, 0.3 mM complex, pH 7.4, 5 °C
# Method: ^19F NMR spectra were recorded using a Bruker 600 MHz NMR instrument with a QCI cryogenic probe at NMRFAM, University of Wisconsin-Madison. All proteins were solubilized in 10 mM HEPES, 150 mM NaCl, pH 7.4 with 10% D2O (Cambridge Isotope Laboratories DLM-4-25).
# NMR probe temperature was maintained at a calibrated value of 5.2 °C. […] To improve the signal/noise ratio, we compared ^19F 1D spectra recorded with and without proton decoupling. Decoupling caused a noticeable reduction of the signal intensity of the ^19F nuclear spin in the context of the complexes; therefore, all spectra were collected un-decoupled to maximize sensitivity. The reference frequency of the ^19F channel was set through internal routines of the Topspin acquisition software after the spectrometer was locked on D2O. The recycle delay was optimized to find the best compromise between the longitudinal relaxation and the repetition rate for signal averaging. The optimal values of D1 = 0.4 s and AQ = 0.59 s were used in all experiments. One-dimensional fluorine experiments were recorded with the pulse program zgflqn.F from the standard Bruker library with TD1 = 134,078 points and a spectral width (SW) of 200 ppm. […] The 4 h data blocks were checked individually for a possible frequency drift (which was not detected) and added to obtain combined datasets with improved signal/noise ratio. […]
# [5] = tested on: TCR4-expressing T cells co-cultured with HLA-A3+ antigen presenting cells (Cos-7); experiment: CD107a degranulation of TCR4-transduced T cells, peptide-pulsed HLA-A3+ APC (flow cytometry); details: for CD107a, absolute frequency: TCR4, 6 h co-culture, E:T 1:1, mean of three replicates
# Method: TCR-T cells were utilized for downstream functional analysis at days 5–8 post transduction.
# Cos-7 cells were electroporated with 100 μg/mL of HLA-A*03:01 mRNA and plated into 96-well round-bottom plates overnight. […] Cells were washed with 1× PBS to remove any unbound peptide. […] Cells were washed again with PBS and then fixed and permeabilized for 15 min at 4 °C. […] All antibodies were used at a final concentration of 5 μg/mL. Finally, cells were washed with perm-wash buffer, suspended in 2% FBS in PBS, and data acquired on an X20 LSR Fortessa flow cytometer with the BD FACSDiva software.
# HLA-A3 [6] = target: T1, HLA-A3; experiment: Peptide dissociation from HLA-A3 by fluorescence anisotropy; format: binding
# HLA-A3 [7] = target: T1, HLA-A3; details: PIK3CA–HLA-A3 complex; quoted in peer review; cited from earlier work
sequence,measurement,setting,value
"AHHGGWTTK [WT peptide, wild-type PI3Kα peptide, His at position 2, presented by HLA-A3]",T cell responses,T cells,no responses were seen
same,"TNFα, absolute frequency",[1],2.4
same,half-life of peptide/HLA-A3 complex,"HLA-A3 [2]; 37 °C (b252/b262 context), quoted in peer review",4.8 min
same,"half-life, peptide dissociation","HLA-A3 [2]; HLA-A3, 37 °C, fluorescence anisotropy",4.82 min
same,"TNFα, absolute frequency",[3],4.823
same,share of remaining 19F population,HLA-A3 [4]; broad peak at –[…],roughly 50%
same,share of total 19F signal,HLA-A3 [4]; sharp peak at –125.12 ppm (degradation),about 19%
same,"CD107a, absolute frequency",[5]; peptide 0.001 ug/mL,1.367
same,"CD107a, absolute frequency",[5]; peptide 0.01 ug/mL,3.473
same,"CD107a, absolute frequency",[5]; peptide 0.1 ug/mL,1.267
same,"CD107a, absolute frequency",[5]; peptide 1 ug/mL,1.09
same,"CD107a, absolute frequency",[5]; peptide 10 ug/mL,1.843
same,"CD107a, absolute frequency",[5]; peptide 1.00E-05 ug/mL,1.503
same,stimulation (CD107a),"[5]; TCR4 T cells, peptide concentrations as high as 10 μM",no stimulation was evident
same,peptide/HLA-A3 dissociation in words,"HLA-A3 [6]; 4 °C, 100 nM fluorescein-labeled peptide/HLA-A3, 100 μM unlabeled peptide, pH 7.4",only a small amount of dissociation observed over an extended period
same,peptide/HLA-A3 stability in words,"HLA-A3 [6]; 37 °C and 25 °C, 100 nM fluorescein-labeled peptide/HLA-A3, pH 7.4",less stable at 37 °C and 25 °C
same,melting temperature (thermal stability),HLA-A3 [7],37 oC
